Assay results reported in patent publication US20070280938A1, “Peptides Derived from Natural Cytotoxicity Receptors and Methods of Use Thereof” (YISSUM RESEARCH AND DEVELOPMENT COMPANY OF THE HEBREW …, priority 2003, published 2007).
Entries after “also recorded” stand apart in the source; their conditions may differ.

Experiments:
NKp30-Ig [1] = target: T1, NKp30-Ig (Homo sapiens, UniProt O14931); experiment: Inhibition of NKp30-Ig binding to tumor cells by premixed saccharides (flow cytometry); settings: cell line not specified
T1 construct: made in house
T1 sequence (O14931 with tags, fused parts or gaps P25L): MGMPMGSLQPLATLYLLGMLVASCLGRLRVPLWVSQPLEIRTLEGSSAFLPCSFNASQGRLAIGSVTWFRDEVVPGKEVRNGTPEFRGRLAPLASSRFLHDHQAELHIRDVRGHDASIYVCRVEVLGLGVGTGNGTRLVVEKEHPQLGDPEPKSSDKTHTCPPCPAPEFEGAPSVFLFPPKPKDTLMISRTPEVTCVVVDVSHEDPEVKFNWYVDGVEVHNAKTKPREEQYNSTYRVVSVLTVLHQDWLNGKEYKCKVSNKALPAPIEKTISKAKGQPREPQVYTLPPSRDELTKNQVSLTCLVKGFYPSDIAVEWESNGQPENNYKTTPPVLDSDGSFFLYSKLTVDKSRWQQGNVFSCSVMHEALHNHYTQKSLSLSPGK
Procedure: (§1) Cells were incubated with the various fusion-Igs for 2 h at 4° C., washed and stained with FITC-conjugated-F(ab′)2-Goat-anti-human-IgG-Fcy (109-096-098, Jackson ImmunoResearch, West Grove, Pa.). Staining and washing buffer consisted of 0.5% (w/v) BSA and 0.05% sodium azide in PBS. Staining of CHO and mutant CHO cells was carried out with 2% FCS instead of bovine serum albumin (BSA) in the different buffers. Propidium iodide (PI) was added prior to reading for exclusion of dead cells. Flow cytometry was performed using a FACSCalibur flow cytometer (Becton Dickinson, Mountain View, Calif.). Data files were acquired and analyzed using BD CELLQuest™ 3.3 software.
(§2) For most binding inhibition experiments, 20 μg of fusion-Ig were premixed with the GAG and added to cells for staining as above. In all experiments, each sample was stained twice in different wells. When results are presented as MFI (median fluorescence intensity), average MFI∓SD of the duplicate staining is shown to reveal consistency of staining procedure. Human IgG1 (hIgG1 kappa, PHP010) was purchased from Serotec, Oxford, UK. Staining with the anti-heparin/heparan sulfate antibody HS4E4 was previously described (35).

NKp46D2-Ig [2] = target: T2, NKp46D2-Ig (Homo sapiens, UniProt O76036); experiment: Inhibition of NKp46D2-Ig binding to tumor cells by premixed saccharides (flow cytometry); settings: for Inhibition of binding of NKp46D2-Ig to tumor cells: cell line not specified; for Inhibition of binding of NKp46D2-Ig: HeLa and PC-3, FIGS. 2B, 2C
T2 construct: residues 101-235 (D2) of the mature NKp46 protein were PCR amplified; CD5 leader peptide (with added Met start codon) (N); made in house
T2 sequence (O76036 with tags, fused parts or gaps isoform O76036-6): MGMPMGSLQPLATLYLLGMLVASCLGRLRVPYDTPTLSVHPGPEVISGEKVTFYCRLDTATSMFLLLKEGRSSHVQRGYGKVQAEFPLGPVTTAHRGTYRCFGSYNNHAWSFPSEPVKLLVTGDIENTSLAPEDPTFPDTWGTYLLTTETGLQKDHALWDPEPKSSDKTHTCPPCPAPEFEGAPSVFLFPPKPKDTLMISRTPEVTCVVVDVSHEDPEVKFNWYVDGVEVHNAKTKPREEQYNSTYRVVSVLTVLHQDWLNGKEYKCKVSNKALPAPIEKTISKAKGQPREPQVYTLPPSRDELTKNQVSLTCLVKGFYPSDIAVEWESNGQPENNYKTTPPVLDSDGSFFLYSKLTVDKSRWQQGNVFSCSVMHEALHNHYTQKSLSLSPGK
Procedure: as §1, §2

NKp30-Ig [3] = target: T3, NKp30-Ig (Homo sapiens, UniProt O14931, P25L); experiment: Inhibition of NKp30-Ig binding to tumor cells by premixed saccharides (flow cytometry)
T3 construct: made in house
T3 sequence (O14931 with tags, fused parts or gaps P25L): as the sequence (O14931 with tags, fused parts or gaps P25L) above
Procedure: as §1, §2

NKp30-Ig [4] = experiment: Treatment of tumor cells (GAG-degrading enzymes, glycosylation or GPI-anchor blockers) then staining with NKp30-Ig; format: cell-based, human
Procedure: as §1
(§3) Tumor cells (10^6) were washed twice in PBS, resuspended in 1ml reaction buffer alone (mock) or reaction buffer containing one of the following GAG-degrading enzymes (Sigma): keratanase (0.94 u/ml, K-2876), heparin lyase I (1.56 u/ml, H-2519) and heparin lyase III (1.25 u/ml, H-8891). Reaction buffer consisted of 1% (w/v) BSA, 1 μg/ml leupeptin and 10 u/ml aprotinin in PBS. Cells were incubated with enzyme for 60 min at 37° C., washed two times with PBS and stained with fusion-Igs as above.
(§4) The involvement of cell membrane-associated GAGs in the binding of NKp46D2-Ig and NKp30-Ig to their cellular ligands was examined. […]

NKp46D2-Ig [5] = experiment: Treatment of tumor cells (GAG-degrading enzymes, glycosylation or GPI-anchor blockers) then staining with NKp46D2-Ig; format: cell-based, human
Procedure: as §1, §3, §4

HeLa cells [6] = experiment: Lysis of HeLa cells by primary NK lines (cytotoxicity assay); format: cell-based, human; settings: FIG. 6A
Procedure: The cytotoxic activity of NK lines against the various targets was assessed in 5-hr 35S-release assays and in 4-hr Eu release time-resolved fluorescence assays, as previously described (20). In experiments where carbohydrates were included, NK cells were first mixed with the carbohydrates and then added to target cells. […] Each point represents the average of duplicate/triplicate values.
To test the role of NKp46 and NKp30 recognition of carbohydrates in NK lysis, the lysis of HeLa cells by NKs in the presence of Glyc-PAA was studied.

LIR1-Ig = target: T4, LIR1-Ig (Homo sapiens, UniProt Q8NHL6); experiment: Effect of premixed saccharides on LIR1-Ig binding to HeLa cells (flow cytometry); settings: Glyc-PAA mixed with Ig-fusion protein, FIG. 1A
T4 construct: made in house
T4 sequence (Q8NHL6 with tags, fused parts or gaps limits assumed): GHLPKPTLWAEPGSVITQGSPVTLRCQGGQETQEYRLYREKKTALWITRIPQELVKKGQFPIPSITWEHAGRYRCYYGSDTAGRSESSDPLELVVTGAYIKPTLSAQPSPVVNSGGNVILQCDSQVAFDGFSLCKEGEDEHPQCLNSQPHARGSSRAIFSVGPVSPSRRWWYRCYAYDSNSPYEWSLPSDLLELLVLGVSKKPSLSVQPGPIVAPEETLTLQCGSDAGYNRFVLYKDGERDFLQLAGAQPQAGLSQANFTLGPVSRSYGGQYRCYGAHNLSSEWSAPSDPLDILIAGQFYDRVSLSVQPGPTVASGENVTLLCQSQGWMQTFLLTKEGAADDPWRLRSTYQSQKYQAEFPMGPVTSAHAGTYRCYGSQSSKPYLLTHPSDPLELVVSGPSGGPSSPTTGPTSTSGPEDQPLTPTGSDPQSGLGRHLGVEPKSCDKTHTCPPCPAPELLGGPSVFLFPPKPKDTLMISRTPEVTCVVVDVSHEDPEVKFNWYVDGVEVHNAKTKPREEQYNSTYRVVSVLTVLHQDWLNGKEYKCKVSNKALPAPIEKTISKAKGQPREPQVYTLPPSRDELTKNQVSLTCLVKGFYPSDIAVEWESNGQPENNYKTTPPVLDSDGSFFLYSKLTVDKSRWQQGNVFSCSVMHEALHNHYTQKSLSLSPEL
Procedure: as §1, §2

EB-SP = experiment: Staining of EB-SP cells expressing cell-surface heparanase with fusion-Igs; format: binding, murine; settings: as compared to parental EB or EB-mock transfected
Procedure: as §1
The EB T lymphoma cell line and EB-SP cells that express a functional heparanase on the cell surface (16) were stained with NKp46D2-Ig. […] An alternative interpretation is that the binding is to a cell-surface molecule associated with heparan sulfate. […] Membrane-associated heparan sulfate proteoglycans (HSPGs) can be divided into two families: glypicans, which are attached to the plasma membrane via glycosylphosphatidylinositol (GPI) anchors, and syndecans, which are transmembrane proteins (23). The involvement of GPI-anchored proteins in the binding of NKp30-Ig and NKp46D2-Ig to tumor cells was examined. Treatment of cells with D-mannosamine (white bars) inhibits GPI-anchor formation.

HeLa cells [7] = experiment: Staining of HeLa cells with fusion-Igs (flow cytometry); format: binding, human
Procedure: as §1

[8] = tested on: mutant CHO cells lacking HSPG; experiment: Binding to mutant CHO cells lacking HSPG; settings: as compared to wt CHO cells; FIG. 7A
Procedure: as §1
To further test the role of NKp46 and NKp30 recognition of carbohydrates in NK lysis, the lysis of CHO mutants lacking HSPG was examined. […] Thus, reduction in binding of NKp46-D2-Ig and NKp30-Ig to tumor cells lacking HSPG is correlated with reduced lysis of these cells by NK cells.

IV-infected cells = experiment: Binding of wild type and mutated NKp46D2 fusion proteins to IV-infected cells; settings: FIG. 10
Procedure: as §1
Based on the observations described above, certain site-directed mutations were made in NKp46D2 (Lys 157, Arg 160, His 163 and Arg 166; 4 point mutations) or (Lys 157, Arg 160, His 163, Arg 166, and Lys 170; 5 point mutations) into hydrophilic, neutral, amino acids with residues of similar size and to compare the ability of the mutant and the wild type receptors to bind heparin/heparan sulfate. Two constructs were prepared: Q4 (K157Q, R160Q, H163Q, and R166Q) and Q4T1 (K157Q, R160Q, H163Q, R166Q, and K170T). The mutated referred to herein as SEQ ID NO:29 SEQ ID NO:30.. Corresponding fusion proteins were prepared (NKp46D2-Q4-Ig and NKp46D2-Q4T1-Ig) and compared to NKp46D2-Ig.

[9] = Glyc-PAA premix, inconsistent inhibition phenotype
[10] = HeLa cells pretreated with 40mM D-mannosamine overnight, FIG. 4D
[11] = tumor cells treated before staining
[12] = Glyc-PAA mixed with Ig-fusion protein, HeLa cells, FIG. 1A

3′-O-sulfo-LacNAc
Inhibition of binding of NKp30-Ig to tumor cells (NKp30-Ig [1]): did not inhibit binding
Inhibition of binding of NKp46D2-Ig to tumor cells (NKp46D2-Ig [2]): did not inhibit binding

6′-O-sulfo-LacNAc
reduction in binding of NKp30-Ig (NKp30-Ig [3]; [9]): up to 25%
reduction in binding of NKp46D2-Ig (NKp46D2-Ig [2]; [9]): up to 25%

N-desulfated heparin
Inhibition of NKp46D2-Ig binding by modified heparins (NKp46D2-Ig [2]; heparins modified in sulfation or acetylation, HeLa cells, FIG. 2D): potent inhibitor

N[C@@H]1C(O)O[C@H](CO)[C@@H](O)[C@@H]1O (stereo partly drawn) [D-mannosamine]
Reduction of binding of NKp30-Ig (NKp30-Ig [4]; [10]): 2 fold
Reduction of binding of NKp46D2-Ig (NKp46D2-Ig [5]; [10]): 4 fold

hyaluronic acid
Inhibition of binding of NKp46D2-Ig (NKp46D2-Ig [2]; incremental concentrations up to 10 μg/ml): did not inhibit binding

CC(=O)N[C@H]1[C@@H](OCc2ccccc2)O[C@H](CO)[C@H](O)[C@@H]1O [abenzyl-GalNAc]
Effect of cell treatment on binding of NKp30-Ig (NKp30-Ig [4]; [11]): significantly reduced the binding
Effect of cell treatment on binding of NKp46D2-Ig (NKp46D2-Ig [5]; [11]): significantly reduced the binding

heparan sulfate
Inhibition of binding of NKp30-Ig to tumor cells (NKp30-Ig [1]): directly inhibits the binding; also recorded: potent inhibitors
Inhibition of binding of NKp46D2-Ig (NKp46D2-Ig [2]; 0.1 μg/ml): inhibit binding
Inhibition of binding of NKp46D2-Ig to tumor cells (NKp46D2-Ig [2]): directly inhibits the binding; also recorded: potent inhibitors

4 ′, 6′-di-O-sulfo-LacNAc
Inhibition of binding of NKp30-Ig to tumor cells (NKp30-Ig [1]): did not inhibit binding
Inhibition of binding of NKp46D2-Ig to tumor cells (NKp46D2-Ig [2]): did not inhibit binding

6-O-sulfo-LacNAc-PAA
Reduction of lysis of HeLa cells by NK (HeLa cells [6]; 0.9 mM): significant reduction of lysis
Reduction of lysis of HeLa cells by NK (HeLa cells [6]; agent present during lysis assay, Glyc-PAA 0.225 to 0.9 mM, E:T 50:1, 4 h): two fold
Inhibition of binding of LIR1-Ig to HeLa cells (LIR1-Ig): not the positive binding of LIR1-Ig
Inhibition of binding of NKp30-Ig to HeLa cells (NKp30-Ig [3]; [12]): inhibited
Inhibition of binding of NKp46D2-Ig to HeLa cells (NKp46D2-Ig [2]; [12]): inhibited binding
Effect on binding of the fusion proteins after pre-incubation of the cells (NKp46D2-Ig [2]; cells pre-incubated with the saccharide, followed by wash and application of the fusion proteins): did not affect the binding

B1: NKp46D2-Ig: truncated fusion protein: D2 of NKp46 with CD5 leader fused to Fc portion of human IgG1 (protein)
chain: MAWMLLLILIMVHPGSCALWVSQPPEIRTLEGSSAFLPCSFNASQGRLAIGSVTWFRDEVVPGKEVRNGTPEFRGRLAPLASSRFLHDHQAELHIRDVRGHDASIYVCRVEVLGLGVGTGNGTRLVVEKEHPQLGAGTVLLLRAGFYAVSFLSVAVGSTVYYQGKCLTWKGPRRQLPAVVPAPLPPPCGSSAHLLPPVPGG
modifications: homo sapiens
Reduction of staining of EB-SP (EB-SP; FIG. 4C): 50%
Binding to HeLa cells (HeLa cells [7]): bound well
Binding to mutant CHO cells lacking HSPG [8]: significantly reduced
Binding to IV-infected cells (IV-infected cells): bind similarly

B2: NKp30-Ig: protein conjugate comprising CD5 leader sequence and NKp30 D domain fused to Fc domain (protein)
chain: MAWRALHPLLLLLLLFPGSQAQSKAQVLQSVAGQTLTVRCQYPPTGSLYEKKGWCKEASALVCIRLVTSSKPRTMAWTSRFTIWDDPDAGFFTVTMTDLREEDSGHYWCRIYRPSDNSVSKSVRFYLVVSPASASTQTPWTPRDLVSSQTQTQSCVPPTAGARQAPESPSTIPVPSQPQNSTLRPGPAAPIALVPVFCGLLVAKSLVLSALLVWWGDIWWKTVMELRSLDTQKATCHLQQVTDLPWTSVSSPVEREILYHTVARTKISDDDDEHTL
modifications: homo sapiens
Staining of EB-SP compared with EB (EB-SP): same phenotype
Binding to HeLa cells (HeLa cells [7]): bound well
Binding to mutant CHO cells lacking HSPG [8]: significantly reduced
